The results in this text go back to patent US6287813A, “Antibiotic-based gene regulation system” (Cistronics Cell Technology GmbH, priority 1999, dated 2001).

For series [1], the target named is T1, Pip/PPTR (Streptomyces coelicolor, UniProt Q9ADN3).
T1 construct: gel retardation with ptr promoter DNA (PPTR) of S. pristinaespiralis
T1 sequence (Q9ADN3 1-252): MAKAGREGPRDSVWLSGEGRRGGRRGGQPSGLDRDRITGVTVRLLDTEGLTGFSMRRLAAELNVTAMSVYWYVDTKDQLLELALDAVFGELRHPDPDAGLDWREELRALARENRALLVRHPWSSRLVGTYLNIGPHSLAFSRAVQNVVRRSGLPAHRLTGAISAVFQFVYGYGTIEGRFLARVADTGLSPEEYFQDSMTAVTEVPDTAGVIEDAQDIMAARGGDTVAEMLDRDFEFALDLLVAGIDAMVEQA
The series is described as follows: Gel retardation assay of Pip/PPTR interaction. It is filed as binding. Conditions: Pip 0.2 pmol titrated with 50 pmol to 0.01 pmol antibiotic. The source says:
FIG. 1: Gel retardation assay showing Pip/PPTR interaction. PPTR of S. pristinaespiralis contains 3 dyad symmetrical binding sites (lane A; PPTR in the absence of Pip) all of which are saturated at relatively large amounts of purified Pip (0.4 pmol; […]) resulting in a single shifted band. Smaller amounts of Pip (0.02 pmol) presented an intermediate situation in which all possible permutations of site occupancy are represented in three distinct retarded bands (lane C). Pip (0.2 pmol lanes D-M) was titrated with a range of PI from 50 pmol to 0.01 pmol (lanes D-H; D: 50 pmol; E: 10 pmol; F: 1 pmol; G: 0.1 pmol; H: 0.01 pmol). […]
Chinese hamster ovary cells (CHO-K1, ATCC: CCL 61), Baby hamster kidney cells (BHK-21, ATCC: CRL-8544), and HeLa cells (ATCC: CRL-7923) as well as stable cell lines CHO-PIT1, CHO-PIT2, CHO-TWIN195, CHO-TWIN1108 and CHO-PIT1-SEAP were cultured as described before (Fussenegger et al., 1998, Nat. Biotechnol. 16,468-472) in the presence of appropriate antibiotics: G418 400 μg/ml; zeocin 100 μg/ml. […] Transient transfected cells were routinely analyzed after 48 h for GFP or SEAP expression using fluorescence microscopy and p-nitrophenolphosphate-based light absorbance timecourse, respectively, as described before (Fussenegger et al., 1998, Nat. Biotechnol. 16, 468-472; Berger et al., 1988, Gene 66, 1-10 b). […]

Series [2] deals with T2, PIT/PPIR system (Streptomyces coelicolor, UniProt Q9ADN3).
T2 construct: pMF156/pTWIN in CHO cells, PPIR-SEAP or GFP reporter
T2 sequence (Q9ADN3 1-252): T1 sequence (Q9ADN3 1-252)
Description: SEAP reporter assay, CHO-K1 cotransfected with pMF156 (PIT) and pMF172 (PPIR-SEAP). Format: cell-based. How it is done:
PIT, the fusion protein of Pip and the VP16 C-terminal transactivation domain of Herpes simplex (Triezenberg et al., 1988, Genes Dev. 2, 718-729) was constructed by amplifying the S. coelicolor Pip from pGemT::Epip4 with oligos:
(§1) Chinese hamster ovary cells (CHO-K1, ATCC: CCL 61), Baby hamster kidney cells (BHK-21, ATCC: CRL-8544), and HeLa cells (ATCC: CRL-7923) as well as stable cell lines CHO-PIT1, CHO-PIT2, CHO-TWIN195, CHO-TWIN1108 and CHO-PIT1-SEAP were cultured as described before (Fussenegger et al., 1998, Nat. Biotechnol. 16,468-472) in the presence of appropriate antibiotics: G418 400 μg/ml; zeocin 100 μg/ml. Optimized CaPO4 protocols were used for high efficiency transient transfection of all cell lines (id). Transient transfected cells were routinely analyzed after 48 h for GFP or SEAP expression using fluorescence microscopy and p-nitrophenolphosphate-based light absorbance timecourse, respectively, as described before (Fussenegger et al., 1998, Nat. Biotechnol. 16, 468-472; Berger et al., 1988, Gene 66, 1-10 b). For construction of stable CHO-PIT and CHO-TWIN cell lines, CHO-K1 was cotransfected either with pMF156 or pTWIN1 and pSV2neo carrying the G418 resistance gene. CHO-PIT1-SEAP was constructed by cotransfection of pMF172 and pZeoSV2 (Invitrogen). For assessment of dose-response characteristics of PPIR -regulated gene expression, CHO-PIT1-SEAP were cultured at cell densities of 150,000/ml for 48 at various PI concentrations. The mixed populations were cloned using FACS-mediated single-cell-sorting (FACStar^Plus; Beckton Dickinson). Gel retardation assay were performed as described (Salah-Bey et al., 1995, supra) using Pip purified from an overproducing strain of E. coli. Pip (0.02 pmol) was titrated with a range of antibiotic concentrations in a reaction volume of 20 μl. Protein solutions were pre-incubated at room temperature for 15 min. in the absence or presence of PI or its derivative quinupristin in a buffer containing 10 mM Tris (pH 7.8), 10 mM MgCl2, 300 mM NaCl, 2 mM DTT and 10% glycerol. An EcoRI-HindII PPTR fragment (0.02 pmol) containing three Pip binding sites (radiolabelled using α-^32 P)dATP was added and incubated for 15 min. To minimize nonspecific protein binding and increase protein stability, 2 μg of poly dIdC and 20 μg BSA were included in the incubation mix. Protein-DNA complexes were separated on 5% polyacrylamide,TBE gels and visualized by autoradiography.
Five different sources of pristinamycin were used: The two therapeutic forms Pyostacin™ and Synercid™, pristinamycin discs, and the single compounds pristinamycin I (PI) and pristinamycin II (PII). Pyostacin™ pills (500 mg) were ground in a mortar and solubilized in DMSO or water at a stock concentration of 50 mg/ml. Synercid™ (RP 59500; Lot Nr. CB06253) was provided by Aventis in injection-ready vials containing 500 mg lyophilized antibiotic which was reconstituted in 5 ml of 5% glucose solution and frozen at -20° C. Individual pristinamycin compounds PI and PII (identical to virginiamycin M1 (VM1); Sigma ref. V2753) were solubilized in DMSO at a concentration of 50 mg/ml and kept at -20° C. Antibiotic discs containing 15 μg pristinamycin or virginiamycin (bioMerieux, ref. 54552; bioMerieux, ref. 54612) were soaked in 1 ml cell culture medium at 4i C for up to 24 h. […] The concentration of individual streptogramin components was calculated based on their fixed 70:30 ratio (w/w; PII/VM1 /dalfopristin: PI/VS1 /quinupristin). […]
(A reporter such as luciferase makes a cellular process visible.)

Series [3] addresses T2, PIT/PPIR system. Description: SEAP reporter assay, CHO-TWIN clones transfected with pMF172 (PPIR-SEAP). Format: cell-based. Conditions: for activity at 2 µg/mL / activity at 10 µg/mL: 48 h, CHO-TWIN1108 + pMF172, crossregulation, read-out: SEAP Production (%); for activity at 10 µg/mL: 10 μg/ml.
Excerpt: (§2) pTWIN contains both PIT and tTA in a PSV40 -driven dicistronic configuration. For construction of pTWIN, PIT was first transferred from pMF156 as an EcoRI/HindIII fragment to the corresponding sites of pSBC-1 (EcoRI/HindIII; resulting in pMF167) before the PIT expression unit could be fused to the tTA expression unit contained on pSBC2-tTA (Fussenegger et al., 1997, supra) via SspI/NotI sites. Thus, pTWIN contains the dicistronic PSV40 -PIT-IRES-tTA-pA expression cassette.
as §1
(§3) CHO-TWIN195 and CHO-TWIN1108 were transfected under identical conditions with the isogenic plasmids containing the SEAP gene under control of the tTA-activated promoter PhCMV*-1 (pMF111) or the PIT-activated promoter PPIR (pMF172). Transfected cells were grown for 48 h in the presence or absence of either antibiotic prior to assay of SEAP activity.
(§4) Table 6: Comparison of the regulation performance of streptogramin- (PI and virginiamycin; VIR) and tetracycline-based gene regulation systems. The two cell clones CHO-TWIN195 and CHO-TWIN1108 containing both pristinamycin- and tetracycline-dependent transactivators were transfected with either the streptogramin-responsive or the TET-responsive SEAP reporter plasmids pMF172 (PPIR -SEAP) and pMF111 (PhCMV*-1 -SEAP), respectively, and the relative SEAP production was assessed. SEAP production values are normalized by SEAP activities under the antibiotic-free, active promoter conditions as follows: pMF172 in CHO-TWIN195:1.7 mU/ml; in CHO-TWIN1108 : 1.8 mU/ml. pMF111 in CHO-TWIN195 : 18.6 mU/ml; in CHO-TWIN1108 : 19.2 mU/ml.
(§5) Table 7: Compatibility of the streptogramin- and tetracycline-based gene regulation systems. Crossregulation of pristinamycin (PI) and the tetracyclines doxycycline (DOX) and tetracycline (TET). […]

The target in series [4] is T3, TET-responsive system (tTA/PhCMV*-1) (Escherichia coli, UniProt P04483).
T3 construct: expressed in transfected cells; host or cells: CHO-K1 clones CHO-TWIN195 and CHO-TWIN1108 (pTWIN1)
Description: SEAP reporter assay, CHO-TWIN clones transfected with pMF111 (PhCMV*-1-SEAP). It is filed as cell-based. Conditions: for SEAP Production (%): 48 h, no inducer = 100.
Excerpt: as §2, §1, §3, §4, §5

T3 sequence (P04483 whole entry, added parts left off): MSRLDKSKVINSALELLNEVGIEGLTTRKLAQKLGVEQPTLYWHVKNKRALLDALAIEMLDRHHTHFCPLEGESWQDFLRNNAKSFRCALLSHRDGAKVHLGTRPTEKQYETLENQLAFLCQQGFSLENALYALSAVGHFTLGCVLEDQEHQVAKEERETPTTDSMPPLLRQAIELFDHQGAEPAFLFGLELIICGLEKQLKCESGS

With `CC[C@H]1NC(=O)[C@@H](NC(=O)c2ncccc2O)[C@@H](C)OC(=O)[C@H](c2ccccc2)NC(=O)[C@@H]2CC(=O)[C@H](CS[C@@H]3CN4CCC3CC4)CN2C(=O)[C@H](Cc2ccc(N(C)C)cc2)N(C)C(=O)[C@@H]2CCCN2C1=O` (stereo in doubt) [quinupristin], the “Release of Pip from PPTR” value in series [1] is listed as “only partial release”.

As for `CC1=CC(O)CC(=O)Cc2nc(co2)C(=O)N2CCC=C2C(=O)OC(C(C)C)C(C)C=CC(=O)NCC=C1` (stereo not drawn) [PII, pristinamycin II], in series [2] (CHO-K1, 2 μg/ml), the “Downregulation of PIT/PPIR-mediated SEAP expression” value is reported as “did not display any significant repression activity”. The activity at 2 µg/mL in series [2] (CHO-K1, inducer 2 μg/ml, assayed 48 hr later, no inducer = 100, read-out: SEAP Production (%)) is 96.3 ± 3.2%.

Take `C[C@H]1c2cccc(O)c2C(O)=C2C(=O)[C@]3(O)C(O)=C(C(N)=O)C(=O)[C@@H](N(C)C)[C@@H]3[C@@H](O)[C@@H]21` [DOX, doxycycline]: the activity at 2 µg/mL in series [3] (2 μg/ml) stood at 77 ± 6.9%. Further, the activity at 10 µg/mL in series [3] stood at 50.5 ± 7.9%.

Consider `CN(C)[C@@H]1C(=O)C(C(N)=O)=C(O)[C@@]2(O)C(=O)C3=C(O)c4c(O)cccc4[C@@](C)(O)[C@H]3C[C@@H]12` [TET, tetracycline], for which the inhibition at 2 µg/mL in series [3] (2 μg/ml, read-out: Repressive effect on the PIT/PPIR system) was 17%. Also, the activity at 2 µg/mL in series [3] (2 μg/ml) amounted to 87.7 ± 1.76%. Besides, in series [3], the activity at 10 µg/mL was determined as 57.5 ± 5%. In series [4] (CHO-TWIN195 + pMF111), the “Induction factor (IF; ratio of maximal expression level to antibiotic-repressed expression level)” value stood at 12 and the “SEAP Production (%)” value was 8.57 ± 0.37%. Further, in series [4] (CHO-TWIN1108 + pMF111, 2880 min), the “Induction factor (fold downregulation of SEAP)” value came to 13 fold. The “SEAP Production (%)” value in series [4] (CHO-TWIN1108 + pMF111) is given as 7.56 ± 0.01%.
